Reference: patent US20240366553A1, “ASPARTIC ACID COPPER COMPLEX, AND USE THEREOF” (GUANGZHOU INSIGHTER BIOTECHNOLOGY CO., LTD., priority 2021, published 2024)

Experiments:
weaned piglets = conditions: for Average weight gain / Feed-to-meat ratio / Survival rate (%) / Total feed consumption / Total weight gain / Relative weight gain rate (%): 50 mg/kg in feed (as copper ion), weaned piglets, 30 days; for Total feed consumption / Total weight gain: 10 pigs; for Relative weight gain rate (%): control group = 100; for Improvement in the feed conversion of the experimental pigs compared with compound 4: used at the same doses (50 mg/kg)
Excerpt: (§1) Experimental animals: 900 one-day-old Lingnan yellow-feathered, fast-growing, and large-sized broilers; 150 weaned piglets;
(§2) Feeds: basal feed for chickens and basal feed for pigs that contain no antimicrobial drugs, copper sources and growth promoters;
(§3) Experimental samples: compound 1, compound 2, compound 3, compound 4, compound 5, compound 6, compound 7,
150 weaned piglets were grouped according to Table 2 (10 piglets/group). […] The piglets had free access to food. The weight gain and feed conversion of the experimental pigs in each experimental group were recorded within 30 days after […] weaning.

[1] = test system: Lingnan yellow-feathered, fast-growing, and large-sized broilers; conditions: for Average feed consumption / Average weight gain / Feed-to-meat ratio / Survival rate (%) / Relative weight gain rate (%): 50 mg/kg in feed (as copper ion), broilers aged 1 to 21 days; for Relative weight gain rate (%): relative to control group; for Physical characteristics of the experimental chickens: experimental groups of compounds 1-7
Excerpt: as §1, §2, §3
900 one-day-old Lingnan yellow-feathered, fast-growing, and large-sized broilers were randomly divided into 18 groups (50 broilers/group). […] The broilers had free access to food. The weight gain and feed conversion of the experimental chickens (aged from 1 to 21 days) in each experimental group were recorded.

[2] = test system: black carp (subyearlings); assay: Use of aspartic acid copper complex in aquaculture feeds (black carp breeding experiment); format: in vivo; conditions: 30 mg/kg in feed (as copper ions), 8 weeks
Procedure: Experimental fishes: The experimental fishes used were black carp (subyearlings), which were provided by the Dafeng fish nursery (Huizhou city, Guangdong province). Healthy and active fingerling black carps (uniform in size) were fed for 4 weeks in a big net cage (4×2×1.5 m^3) and then the formal breeding experiment was carried out. The experimental systems were small floating net cages (1.1×1.1×1.1 m^3 in size). Each small net cage was provided with an air-filling head, which allowed for continuous inflation of the cages for 24 h a day. The small net cages and the acclimatization net cage were all placed in a 3500 m^2 pond in the experimental field. […] During the trial, 480 black carps (fasted for 1 d) were randomly divided into 10 groups, with 4 replicates for each group and 12 fishes in each replicate. After weighing as a whole, the black carps were randomly placed into […] and fed with different experimental feeds.
Experimental feeds: The experimental feeds were formulated following the formula in Table 5. According to Table 6, different copper element supplements (calculated based on the copper ions) were added to the feeds in different experimental groups, respectively. The feed raw materials were subjected to ultrafine grinding and then granulated into floating expanded feeds (3 mm) using an expansion machine from Jiangsu Muyang Corporation. The demolding temperature was 130° C. 3% soybean oil was externally sprayed using an oil spraying device. The finished product was sealed and stored in a cool place for later use.
Experimental management: During the trial, the carps were manually fed in a restricted dose. The feeding dose was adjusted once a week, and the doses for all groups (based on the initial body weight) were completely consistent. The carps were fed twice a day (at 7:30 and 15:00). The experiment lasted for 8 weeks. During the trial, the water quality was regularly monitored, and throughout the breeding, the water temperature was kept at 26.88±3.08° C., DO>5.0 mg O L^−1, pH 7.8, ammonia nitrogen<0.50 mg NL^−1, and nitrite-nitrogen<0.05 mg N L^−1.
Parametric statistics: During the trial, the carps in each net cage were weighed as a whole one day after discontinuation of feeding, and the average weight gain (g) and feed-to-meat ratio were calculated. The calculation formulas are as follows:
Average weight gain (g)=Average final weight−Average initial weight; Feed-to-meat ratio=Food intake/Weight gain of fishes;

[3] = 50 mg/kg (as copper ion), versus control

Structure (SMILES)	Average weight gain (weaned piglets)	Feed-to-meat ratio (weaned piglets)	Survival rate (%) (weaned piglets)	Total feed consumption (weaned piglets)	Total weight gain (weaned piglets)	Relative weight gain rate (%) (weaned piglets)	Improvement in the feed conversion of the experimental pigs compared with compound 4 (weaned piglets)	Average feed consumption [1]	Average weight gain [1]	Feed-to-meat ratio [1]	Survival rate (%) [1]	Relative weight gain rate (%) [1]	Physical characteristics of the experimental chickens [1]	Average weight gain [2]	Feed-to-meat ratio [2]	Feed conversion decreased by [1, 3]	Relative weight gain rate increased by [1, 3]
N[C@@H](CC(=O)[O-])C(=O)[O-].O.O.[Cu+2] [Compound 2, [(Cu(II))(L-Asp)(H2O)2]. (H2O)0.34]	12.30 kg	2.116	100%	260.21 kg	123.0 kg	112.8%	about 2 fold	908 g	509 g	1.783	100%	107.4%	normal physical characteristics	368 g	1.359	–	–
N[C@@H](CC(=O)[O-])C(=O)[O-].O.O.[Cu+2] [Compound 3, [(Cu(II))(L-Asp)(H2O)2]·(H2O)0.62]	11.92 kg	2.114	100%	251.97 kg	119.2 kg	109.4%	about 2 fold	919 g	514 g	1.788	100%	108.4%	normal physical characteristics	361 g	1.385	–	–
N[C@@H](CC(=O)[O-])C(=O)[O-].[Cu+2] [Compound 4, [(Cu(II))(L-Asp)]]	11.67 kg	2.208	100%	257.63 kg	116.7 kg	107.06%	–	924 g	508 g	1.819	100%	107.2%	normal physical characteristics	344 g	1.453	3.23%	7.2%
